The values that follow come from ChEMBL document CHEMBL1201862, “PubChem BioAssay data set” (2004).

Each structure is given as a SMILES string.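 Grown in 96-well plates, cells were treated for 48 hours with each compound at five concentrations. Insufficient inhibition: endpoint recorded as highest concentration tested. GI50: concentration for 50% inhibition of growth.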 Activity calls are given as the source filed them. No stated cut-off is given here; in the data, active = GI50 up to about 1.1 µM and inactive = higher.

Among the test systems are OVCAR-4; MDA-MB-435; CCRF-CEM; UO-31; ACHN; HL-60; U-251; T47D; HCT-15; DU-145; MDA-MB-231; UACC-257; OVCAR-5; HT-29; K562; SF-539; LOX IMVI; OVCAR-3; NCI-H522; PC-3.
Test in all cases: NCI anticancer screen, dose series, 48 h

For the molecule `NS(=O)(=O)c1ccc(/N=N/c2cc3ccccc3c(C(=O)O)c2O)cc1`, the GI50 in the test on OVCAR-4 is > 46.5 µM (inactive); in the test with MDA-MB-435 it was > 55.8 µM (inactive); in the test on CCRF-CEM, 78 µM (inactive); in the test on UO-31, > 49.8 µM (inactive); in the test with ACHN, 15.7 µM (inactive); in the test on HL-60, > 100 µM (inactive). The GI50 with U-251 was > 39.9 µM (inactive); in the test on T47D, > 54.1 µM (inactive); with HCT-15, over 49.7 µM; in the test on DU-145, > 46 µM (inactive); in the test on MDA-MB-231 it was > 52 µM (inactive); with UACC-257, > 58.2 µM (inactive). For the same molecule, the GI50 in the test with OVCAR-5 was > 54.3 µM (inactive); in the test with HT-29, > 55.7 µM (inactive); in the test with K562, > 100 µM (inactive); in the test with SF-539, > 100 µM (inactive); in the test on LOX IMVI, > 54.5 µM (inactive); with OVCAR-3, > 47.8 µM (inactive). For the same molecule, the GI50 is > 41 µM (inactive) in the test with NCI-H522 and > 48.3 µM (inactive) in the test with PC-3.
Turning to `Oc1nc2nnc(COc3ccc(Cl)cc3Cl)n2nc1Cc1ccccc1`, the GI50 is 47.8 µM (inactive) with OVCAR-4; > 100 µM (inactive) with MDA-MB-435; 33 µM (inactive) in the test with CCRF-CEM; 24.2 µM (inactive) in the test on UO-31; 41.8 µM (inactive) in the test with ACHN; 49.2 µM (inactive) in the test on HL-60. Further, the GI50 in the test on U-251 was 23.8 µM (inactive); with T47D it was 37.8 µM (inactive); with HCT-15 it was over 100 µM; with DU-145 it was > 100 µM (inactive); with MDA-MB-231 it was 43.2 µM (inactive); in the test on UACC-257, > 100 µM (inactive). For the same molecule, the GI50 in the test with OVCAR-5 is > 100 µM (inactive); with HT-29, > 100 µM (inactive); in the test on K562 it was > 100 µM (inactive); with SF-539 it was 20.1 µM (inactive); with LOX IMVI it was > 100 µM (inactive); in the test on OVCAR-3, 27.5 µM (inactive). Further, the GI50 with NCI-H522 and in the test with PC-3 was > 100 µM (inactive) each time.
Regarding `O=Nn1c2ccccc2c2ccccc21`, the GI50 in the test on OVCAR-4 was 90.8 µM (inactive); in the test with MDA-MB-435, 77.4 µM (inactive); in the test with CCRF-CEM it was 45.7 µM (inactive); with UO-31 it was 34.4 µM (inactive); in the test with ACHN, 56.2 µM (inactive); in the test on HL-60 it was 59.3 µM (inactive). Moreover, the GI50 in the test with U-251 is 92.9 µM (inactive); in the test with T47D, 66.5 µM (inactive); with HCT-15 it was 35.1 µM; in the test on DU-145, > 100 µM (inactive); in the test with MDA-MB-231, 65.2 µM (inactive); in the test with UACC-257, 61.2 µM (inactive). The GI50 in the test on OVCAR-5 was > 100 µM (inactive); with HT-29 it was 50.2 µM (inactive); in the test on K562, 58.9 µM (inactive); in the test on SF-539, > 100 µM (inactive); in the test on LOX IMVI, 48.1 µM (inactive); in the test with OVCAR-3, 71.9 µM (inactive). For the same molecule, the GI50 in the test with NCI-H522 was 38.6 µM (inactive); in the test with PC-3, 42.8 µM (inactive).
Take `Cc1ccc2occ/c(=N\Nc3ccccc3)c2c1`: the GI50 in the test with OVCAR-4 is 13.2 µM (inactive); in the test with MDA-MB-435 it was 17.9 µM (inactive); in the test with CCRF-CEM it was > 100 µM (inactive); in the test with UO-31, 70.8 µM (inactive); in the test on ACHN, > 100 µM (inactive); with HL-60, > 100 µM (inactive). Besides, the GI50 in the test with U-251 was 66.1 µM (inactive); in the test with T47D it was 1.33 µM (inactive); with HCT-15, 39.9 µM; in the test with DU-145, 37.8 µM (inactive); in the test with MDA-MB-231, 88.5 µM (inactive); in the test with UACC-257, > 100 µM (inactive). Besides, the GI50 in the test on OVCAR-5 was 59.4 µM (inactive); in the test on HT-29 it was 23.9 µM (inactive); in the test on K562, 25.2 µM (inactive); in the test on SF-539 it was > 100 µM (inactive); in the test on LOX IMVI it was 66.2 µM (inactive); with OVCAR-3, 60.1 µM (inactive). Also, the GI50 in the test with NCI-H522 is 84.7 µM (inactive); in the test with PC-3, 63.1 µM (inactive).
For `CC(C)=CCc1cc2c(cc1O)OC[C@H]1c3cc4c(cc3O[C@@H]21)OCO4`, the GI50 with OVCAR-4 is 37.4 µM (inactive); with MDA-MB-435, 32.6 µM (inactive); with CCRF-CEM, 26.4 µM (inactive); with UO-31, 31.6 µM (inactive); with ACHN it was 42.4 µM (inactive); with HL-60, 23.8 µM (inactive). Besides, the GI50 in the test with U-251 is 37.5 µM (inactive); in the test on T47D, 34.4 µM (inactive); in the test with HCT-15, 35.8 µM; in the test with DU-145, 38.8 µM (inactive); with MDA-MB-231, 40.3 µM (inactive); in the test on UACC-257, 45.3 µM (inactive). For the same molecule, the GI50 is 61.7 µM (inactive) with OVCAR-5; > 100 µM (inactive) in the test with HT-29; 36.7 µM (inactive) with K562; 36.7 µM (inactive) with SF-539; 17.3 µM (inactive) in the test with LOX IMVI; 37.2 µM (inactive) in the test with OVCAR-3. The GI50 was 32.6 µM (inactive) in the test with NCI-H522 and 23.3 µM (inactive) with PC-3.
As for `CC1CCC2C(C)C(=O)OC2C2(C)C(=O)C=CC12` (stereo not given), the GI50 with OVCAR-4 is > 10 µM (inactive); in the test with MDA-MB-435 it was > 10 µM (inactive); in the test on CCRF-CEM, 3.92 µM (inactive); in the test on UO-31, > 10 µM (inactive); in the test on ACHN it was > 10 µM (inactive); with HL-60 it was 6.82 µM (inactive). In addition, the GI50 in the test with U-251 was > 10 µM (inactive); in the test on T47D, > 10 µM (inactive); in the test with HCT-15, over 10 µM; in the test with DU-145, > 10 µM (inactive); in the test with MDA-MB-231, > 10 µM (inactive); with UACC-257, > 10 µM (inactive). For the same molecule, the GI50 was > 10 µM (inactive) in the test with OVCAR-5; > 10 µM (inactive) in the test on HT-29; 4.57 µM (inactive) with K562; > 10 µM (inactive) with SF-539; 8.69 µM (inactive) in the test with LOX IMVI; > 10 µM (inactive) in the test on OVCAR-3. Also, the GI50 in the test with NCI-H522 was 2.83 µM (inactive); in the test on PC-3, > 10 µM (inactive).
As for `CC(N)(Cc1c[nH]c2ccccc12)C(=O)O` (stereo not given), the GI50 in the test with OVCAR-4, in the test on MDA-MB-435, with CCRF-CEM, in the test on UO-31, with ACHN and in the test on HL-60 was > 100 µM (inactive) in each case. For the same molecule, the GI50 was > 100 µM (inactive) with U-251; > 100 µM (inactive) with T47D; over 100 µM in the test on HCT-15; > 100 µM (inactive) in the test on DU-145; > 100 µM (inactive) in the test with MDA-MB-231; > 100 µM (inactive) in the test on UACC-257. Further, the GI50 with OVCAR-5, in the test on HT-29, with K562, in the test on SF-539, in the test on LOX IMVI and in the test with OVCAR-3 was > 100 µM (inactive) in each case. Besides, the GI50 in the test on NCI-H522 and with PC-3 was > 100 µM (inactive) throughout.
